How the values were obtained:
[1] = system: p53-Y220C mutant; conditions: covalent, targets Cys220; cited from earlier work
[2] = target: T1, T-p53C-Y220C (Homo sapiens, UniProt P04637, M133L/N239Y/N268D/V203A/Y220C); assay: Intact protein mass spectrometry of T-p53C-Y220C; format: binding; conditions: protein-to-compound ratio 1:100, 24 h, 20 °C
[3] = target: T1, T-p53C-Y220C; assay: DSF thermal shift of T-p53C-Y220C; format: binding; conditions: for T-p53C-Y220C ∆Tm ± SD, concentration-dependent DSF: 1000 µM

SMILES | increase of Tm of the Y220C mutant [1] | arylated T-p53C-Y220C protein species detected by intact MS [2] | T-p53C-Y220C ∆Tm ± SD ([3]; 250 µM, 24 h, 20 °C) [°C] | incubation time at which ∆Tm of T-p53C-Y220C plateaued / reached maximum ([3]; 1 mM, 20 °C, time-dependent DSF) | T-p53C-Y220C ∆Tm, time-dependent DSF ([3]; 1 mM, 10 min incubation, 20 °C) [°C] | T-p53C-Y220C ∆Tm ± SD, concentration-dependent DSF ([3]; 30 min) [°C] | T-p53C-Y220C ∆Tm ± SD ([3]; 1 mM, 30 min, 20 °C) [°C] | T-p53C-Y220C ∆Tm ± SD, concentration-dependent DSF ([3]; 24 h) [°C]
C=C(C)C(=O)n1cc(C)c2c(-c3ccc4c(c3)CCN(C)C4)cncc21 [KG13] | levels comparable to those of the WT protein | – | – | – | – | – | – | –
N#Cc1cnc(Cl)cn1 [SN006/7-3, 5-chloro-pyrazine-2-carbonitrile] | – | three, four, or five times | 2.87 | about 2 h | 2.30 | 2.65 | 2.75 | 3.55
